US20030165458A1, “Diagnosis, prevention, amelioration and/or treatment of disturbed immune function induced by disturbed lipid metabolism” (priority 2000, published 2003)

Columns and labels:
[1] = test system: Complement Lipid Pathway (CliP); assay: MBL in-vitro assay: MBL-dependent complement activation in human serum, hemolysis of heterologous chicken erythrocytes; format: biochemical; conditions: results summarized in FIG. 9
Protocol: Experimental procedure: Chylomicrons were isolated from human serum by ultra centrifugation and purified by column chromatography. The purified chylomicron fractions were added to MBL-positive serum (from healthy human subjects) and MBL-negative serum (from MBL-deficient human subjects) and purified heterologous chicken erythrocytes were added. Complement activation was allowed to occur at 37° C. for 45 min. after which, the extend of hemolysis was evaluated by spectrophotometrical determination of hemoglobin levels in serum supernatants.
Using the MBL in-vitro assay, we identified, as an example, the components from olive oil and soy oil inducing Complement Lipid Pathway (CliP)-activation.

[2] = Standardized oral fat load with and without vitamin A in healthy volunteers; format: in vivo, human
Protocol: Experimental procedure: Fasting venous blood was drawn and Sudan Black staining as described in example 2 was carried out (left panel of FIG. 7). In the right panel of FIG. 7, venous blood of the same healthy volunteer was drawn 4 hours after administration of a standardized oral fat load. In the oral RP-fat loading test, cream is used as fat source; this is a 40% (w/v) fat emulsion with a P/S ratio of 0.06, which contains 0.001% (w/v) cholesterol and 2.8% (w/v) carbohydrates. After an overnight fast of 12 h, the subjects ingest the fresh cream, to which 120.000 U of aqueous RP (Retinyl palmitate =vitamin A) had been added 18 h before the test, in a dose of 50 g per m^2 body surface. After the ingestion of the fat load, subjects were only allowed to drink water or tea during the following 24 h. Peripheral blood samples were obtained in sodium EDTA (2 mg/ml) before (T=0), at hourly intervals up to 10 h and at 12 and 24 h after the meal. Tubes were protected against light by aluminum foil and centrifuged immediately for 15 min at 800×g at 4° C. […]
Experimental procedure: Standardized oral fat loading tests (oral RP fat loading test) were performed in volunteers and patients and plasma C3 levels were determined nephelometrically at regular intervals. Complement component 3 was measured by nephelometry (Dade Behring Nephelometry type II). […]

CCCCCCCCCCCCCCCC(=O)OC/C=C(C)/C=C/C=C(C)/C=C/C1=C(C)CCCC1(C)C [vitamin A, Retinyl palmitate]
CLiP-induction [1]: strong CLiP-induction | postprandial plasma C3 increase ([2]; 20 healthy volunteers, oral fat load with vs without vitamin A, after 2 h (FIG. 11A)): significantly higher | plasma triglyceride increase 2 h after acute oral fat load ([2]; healthy volunteers, fat load with vs without vitamin A (FIG. 11B)): reduction
